From publication PMC516463 (Evidence-based Complementary and Alternative Medicine, 2004) come the findings set out here.

SMILES strings stand for the structures.

The test system of the assay is HIV-1. The note with it: 10 μM, control inhibitor of infection.

On to `Cc1cn([C@H]2C[C@H](N=[N+]=[N-])[C@@H](CO)O2)c(=O)[nH]c1=O` [AZT], for which the “Inhibition of HIV-1 infection of MAGIC-5B cells (in words)” value is listed as “totally suppressed”.
